# From patent publication US20050163814A1, “Granulated phosphoroamido(di) thioates” (priority 2002, published 2005)
# “And” between values parts separate entries of the source, which are not always exact repeats. Identical values can stand only once. Marks after values point to notes of the source that are not given here.
# Assays:
# Type in all cases: physicochemical
# [1] = GE Brightness of acephate powder; settings: bulk powder, reflected light
# Protocol: A sample of technical grade acephate crystals was obtained (Examples 1 and 3) and compared. […] Half of each sample was analyzed for brightness and particle size distribution.
# Milling caused a measurable increase in the brightness of the bulk powder sample as measured by reflected light. Such an increase is visually apparent as a noticeably brighter powder when compared side-by-side under the GE Brightness test.
# [2] = Crystal dimensions by visual inspection; settings: for Crystal dimensions: length / Crystal dimensions: width: Table 4; for Aspect ratio: length:width; for average crystal length / average width: visual inspection
# Text: The unmilled acephate from example 3 was a commercially available technical grade having elongated cylindrical shaped crystals with an average crystal length of 250-500 μm and an average width of 40-100 μm. In contrast, the acephate powder of example 4 was made of substantially cylindrical shaped crystals with an average crystal length of less than about 150 μm and an average width of less than 40 μm.
# [3] = Particle size distribution (sieve openings) of acephate technical
# Protocol: The other half of the Source B sample was analyzed for particle size distribution as received and with the milling according to the invention. FIG. 1 (unmilled) and FIG. 2 (milled) are graphs of the particle size distributions from the milling process. All values are in terms of weight percent of total sample that could pass through the designated sieve opening.
# [4] = up to Sieve Size >177 μm, subject to rounding
smiles,measurement,setting,value
"COP(=O)(NC(C)=O)SC (stereo not shown) [Ex. 4, acephate]",GE Brightness,[1],93.7
same,Crystal dimensions: length,[2]; listed as Milled,40-90 μm
same,Crystal dimensions: width,[2]; listed as Milled,20-25 μm
same,Aspect ratio,[2]; listed as Milled,2-3.6
same,average crystal length,[2],less than 150 μm
same,average width,[2],less than 40 μm
same,"Summary Particle Size Distribution, Range","[3]; Sieve Size 2.3-3.9 μm, listed as Milled",15.26 wt %
same,"Summary Particle Size Distribution, Range","[3]; Sieve Size 4.6-16 μm, listed as Milled",41.93 wt %
same,"Summary Particle Size Distribution, Range","[3]; Sieve Size 4.6-37 μm, listed as Milled",62.09 wt %
same,"Summary Particle Size Distribution, Range","[3]; Sieve Size 4.6-88 μm, listed as Milled",71.47 wt %
same,"Summary Particle Size Distribution, Range","[3]; Sieve Size 19-37 μm, listed as Milled",20.16 wt %
same,"Summary Particle Size Distribution, Range","[3]; Sieve Size 44-88 μm, listed as Milled",9.39 wt %
same,"Summary Particle Size Distribution, Range","[3]; Sieve Size 105-149 μm, listed as Milled",1.38 wt %
same,"Summary Particle Size Distribution, Range","[3]; Sieve Size <1.9 μm, listed as Milled",11.73 wt %
same,"Summary Particle Size Distribution, Range","[3]; Sieve Size <3.9 μm, listed as Milled",26.99 wt %
same,"Summary Particle Size Distribution, Range","[3]; Sieve Size >105 μm, listed as Milled",1.54 wt % and 1.68 wt %
same,"Summary Particle Size Distribution, Range","[3]; Sieve Size >177 μm, listed as Milled",0.30 wt %
same,Particle Size Distribution,"[3]; Size 1.9 μm, listed as Milled",3.7746 weight percent
same,Particle Size Distribution,"[3]; Size 2.3 μm, listed as Milled",1.8957 weight percent
same,Particle Size Distribution,"[3]; Size 2.8 μm, listed as Milled",3.9085 weight percent
same,Particle Size Distribution,"[3]; Size 3.3 μm, listed as Milled",4.3981 weight percent
same,Particle Size Distribution,"[3]; Size 3.9 μm, listed as Milled",5.0539 weight percent
same,Particle Size Distribution,"[3]; Size 4.6 μm, listed as Milled",4.0079 weight percent
same,Particle Size Distribution,"[3]; Size 5.5 μm, listed as Milled",4.6002 weight percent
same,Particle Size Distribution,"[3]; Size 6.5 μm, listed as Milled",5.3931 weight percent
same,Particle Size Distribution,"[3]; Size 7.8 μm, listed as Milled",5.6669 weight percent
same,Particle Size Distribution,"[3]; Size 9.2 μm, listed as Milled",6.1254 weight percent
same,Particle Size Distribution,"[3]; Size 11 μm, listed as Milled",6.0030 weight percent
same,Particle Size Distribution,"[3]; Size 13 μm, listed as Milled",5.4418 weight percent
same,Particle Size Distribution,"[3]; Size 16 μm, listed as Milled",4.6925 weight percent
same,Particle Size Distribution,"[3]; Size 19 μm, listed as Milled",4.8575 weight percent
same,Particle Size Distribution,"[3]; Size 22 μm, listed as Milled",4.9085 weight percent
same,Particle Size Distribution,"[3]; Size 26 μm, listed as Milled",4.4529 weight percent
same,Particle Size Distribution,"[3]; Size 31 μm, listed as Milled",3.4498 weight percent
same,Particle Size Distribution,"[3]; Size 37 μm, listed as Milled",2.4873 weight percent
same,Particle Size Distribution,"[3]; Size 44 μm, listed as Milled",2.0818 weight percent
same,Particle Size Distribution,"[3]; Size 53 μm, listed as Milled",2.3280 weight percent
same,Particle Size Distribution,"[3]; Size 63 μm, listed as Milled",2.2067 weight percent
same,Particle Size Distribution,"[3]; Size 75 μm, listed as Milled",1.5439 weight percent
same,Particle Size Distribution,"[3]; Size 88 μm, listed as Milled",1.2313 weight percent
same,Particle Size Distribution,"[3]; Size 105 μm, listed as Milled",0.8371 weight percent
same,Particle Size Distribution,"[3]; Size 125 μm, listed as Milled",0.4144 weight percent
same,Particle Size Distribution,"[3]; Size 149 μm, listed as Milled",0.1331 weight percent
same,Particle Size Distribution,"[3]; Size 177 μm, listed as Milled",0.1199 weight percent
same,Particle Size Distribution,"[3]; Size 210 μm, listed as Milled",0.0486 weight percent
same,Particle Size Distribution,"[3]; Size 250 μm, listed as Milled",0.132 weight percent
same,Particle Size Distribution,"[3]; Size 298 μm, listed as Milled",0.0000 weight percent
same,Particle Size Distribution,"[3]; Size <1.9 μm, listed as Milled",7.9543 weight percent
same,Particle Size Distribution,"[3]; Size >298 μm, listed as Milled",0.0000 weight percent
same,mean particle size,[3]; listed as Milled,19.1 μm
same,median particle size,[3]; listed as Milled,10.3 μm
same,"Summary Particle Size Distribution, Cumul.","[3]; up to Sieve Size 2.3-3.9 μm, listed as Milled",26.99 wt %
same,"Summary Particle Size Distribution, Cumul.","[3]; up to Sieve Size 4.6-16 μm, listed as Milled",68.92 wt %
same,"Summary Particle Size Distribution, Cumul.","[3]; up to Sieve Size 19-37 μm, listed as Milled",89.07 wt %
same,"Summary Particle Size Distribution, Cumul.","[3]; up to Sieve Size 44-88 μm, listed as Milled",98.46 wt %
same,"Summary Particle Size Distribution, Cumul.","[3]; up to Sieve Size 105-149 μm, listed as Milled",99.85 wt %
same,"Summary Particle Size Distribution, Cumul.","[3]; up to Sieve Size <1.9 μm, listed as Milled",11.73 wt %
same,"Summary Particle Size Distribution, Cumul.",[3]; [4],˜100* wt %
"COP(=O)(NC(C)=O)SC (stereo not shown) [Ex. 3, acephate, reference compound]",GE Brightness,[1],90.2
same,Crystal dimensions: length,[2]; listed as Unmilled,100-280 μm
same,Crystal dimensions: width,[2]; listed as Unmilled,40-50 μm
same,Aspect ratio,[2]; listed as Unmilled,2.5-5.6
same,average crystal length,[2],250-500 μm
same,average width,[2],40-100 μm
same,"Summary Particle Size Distribution, Range","[3]; Sieve Size 2.3-3.9 μm, listed as Unmilled",14.55 wt %
same,"Summary Particle Size Distribution, Range","[3]; Sieve Size 4.6-16 μm, listed as Unmilled",33.43 wt %
same,"Summary Particle Size Distribution, Range","[3]; Sieve Size 4.6-37 μm, listed as Unmilled",50.51 wt %
same,"Summary Particle Size Distribution, Range","[3]; Sieve Size 4.6-88 μm, listed as Unmilled",65.44 wt %
same,"Summary Particle Size Distribution, Range","[3]; Sieve Size 19-37 μm, listed as Unmilled",17.08 wt %
same,"Summary Particle Size Distribution, Range","[3]; Sieve Size 44-88 μm, listed as Unmilled",14.93 wt %
same,"Summary Particle Size Distribution, Range","[3]; Sieve Size 105-149 μm, listed as Unmilled",4.97 wt %
same,"Summary Particle Size Distribution, Range","[3]; Sieve Size <1.9 μm, listed as Unmilled",13.27 wt %
same,"Summary Particle Size Distribution, Range","[3]; Sieve Size <3.9 μm, listed as Unmilled",27.83 wt %
same,"Summary Particle Size Distribution, Range","[3]; Sieve Size >105 μm, listed as Unmilled",6.73 wt %
same,"Summary Particle Size Distribution, Range","[3]; Sieve Size >177 μm, listed as Unmilled",1.76 wt %
same,Particle Size Distribution,"[3]; Size 1.9 μm, listed as Unmilled",3.6123 weight percent
same,Particle Size Distribution,"[3]; Size 2.3 μm, listed as Unmilled",1.6125 weight percent
same,Particle Size Distribution,"[3]; Size 2.8 μm, listed as Unmilled",3.3402 weight percent
same,Particle Size Distribution,"[3]; Size 3.3 μm, listed as Unmilled",5.0469 weight percent
same,Particle Size Distribution,"[3]; Size 3.9 μm, listed as Unmilled",4.5533 weight percent
same,Particle Size Distribution,"[3]; Size 4.6 μm, listed as Unmilled",2.9044 weight percent
same,Particle Size Distribution,"[3]; Size 5.5 μm, listed as Unmilled",3.2481 weight percent
same,Particle Size Distribution,"[3]; Size 6.5 μm, listed as Unmilled",5.7966 weight percent
same,Particle Size Distribution,"[3]; Size 7.8 μm, listed as Unmilled",4.6403 weight percent
same,Particle Size Distribution,"[3]; Size 9.2 μm, listed as Unmilled",4.2474 weight percent
same,Particle Size Distribution,"[3]; Size 11 μm, listed as Unmilled",4.6232 weight percent
same,Particle Size Distribution,"[3]; Size 13 μm, listed as Unmilled",4.6531 weight percent
same,Particle Size Distribution,"[3]; Size 16 μm, listed as Unmilled",3.3203 weight percent
same,Particle Size Distribution,"[3]; Size 19 μm, listed as Unmilled",3.2150 weight percent
same,Particle Size Distribution,"[3]; Size 22 μm, listed as Unmilled",3.1651 weight percent
same,Particle Size Distribution,"[3]; Size 26 μm, listed as Unmilled",3.7619 weight percent
same,Particle Size Distribution,"[3]; Size 31 μm, listed as Unmilled",3.7231 weight percent
same,Particle Size Distribution,"[3]; Size 37 μm, listed as Unmilled",3.2123 weight percent
same,Particle Size Distribution,"[3]; Size 44 μm, listed as Unmilled",3.0323 weight percent
same,Particle Size Distribution,"[3]; Size 53 μm, listed as Unmilled",3.3767 weight percent
same,Particle Size Distribution,"[3]; Size 63 μm, listed as Unmilled",3.2501 weight percent
same,Particle Size Distribution,"[3]; Size 75 μm, listed as Unmilled",2.8069 weight percent
same,Particle Size Distribution,"[3]; Size 88 μm, listed as Unmilled",2.4665 weight percent
same,Particle Size Distribution,"[3]; Size 105 μm, listed as Unmilled",2.0819 weight percent
same,Particle Size Distribution,"[3]; Size 125 μm, listed as Unmilled",1.5293 weight percent
same,Particle Size Distribution,"[3]; Size 149 μm, listed as Unmilled",1.3606 weight percent
same,Particle Size Distribution,"[3]; Size 177 μm, listed as Unmilled",0.7768 weight percent
same,Particle Size Distribution,"[3]; Size 210 μm, listed as Unmilled",0.4565 weight percent
same,Particle Size Distribution,"[3]; Size 250 μm, listed as Unmilled",0.2321 weight percent
same,Particle Size Distribution,"[3]; Size 298 μm, listed as Unmilled",0.1849 weight percent
same,Particle Size Distribution,"[3]; Size <1.9 μm, listed as Unmilled",9.6625 weight percent
same,Particle Size Distribution,"[3]; Size >298 μm, listed as Unmilled",0.1068 weight percent
same,mean particle size,[3]; listed as Unmilled,30.4 μm
same,median particle size,[3]; listed as Unmilled,11.7 μm
same,"Summary Particle Size Distribution, Cumul.","[3]; up to Sieve Size 2.3-3.9 μm, listed as Unmilled",27.83 wt %
same,"Summary Particle Size Distribution, Cumul.","[3]; up to Sieve Size 4.6-16 μm, listed as Unmilled",61.26 wt %
same,"Summary Particle Size Distribution, Cumul.","[3]; up to Sieve Size 19-37 μm, listed as Unmilled",78.34 wt %
same,"Summary Particle Size Distribution, Cumul.","[3]; up to Sieve Size 44-88 μm, listed as Unmilled",93.27 wt %
same,"Summary Particle Size Distribution, Cumul.","[3]; up to Sieve Size 105-149 μm, listed as Unmilled",98.24 wt %
same,"Summary Particle Size Distribution, Cumul.","[3]; up to Sieve Size <1.9 μm, listed as Unmilled",13.27 wt %
same,"Summary Particle Size Distribution, Cumul.",[3]; [4],˜100* wt %
"COP(=O)(NC(C)=O)SC (stereo not shown) [Ex. 2, acephate]",GE Brightness,[1],88.4
"COP(=O)(NC(C)=O)SC (stereo not shown) [Ex. 1, acephate, reference compound]",GE Brightness,[1],87.2
